Test results taken from patent US9533991B2, “Inhibitors of Bruton's tyrosine kinase” (PHARMACYCLICS LLC, priority 2014, dated 2017).

Columns and labels:
LCK = LCK (Homo sapiens, UniProt P06239); experiment: Inhibition of a panel of kinases: LCK; format: biochemical; settings: kinase panel, Table 2
Description: (§1) The degree of inhibition of a panel of kinases is determined using assays similar to the kinase assay described in Example 53.

lymphoma cell line DOHH2 = experiment: Lymphoma cell assay (anti-IgG stimulated CD69, FACS); format: cell-based; settings: DOHH-2; DOHH2 cells stimulated with anti-human IgG F(ab')2 10 μg/mL, 14 to 20 hours; read-out: IC50 (50% decrease in CD69 fluorescence on cell surface)
Description: Cells of lymphoma cell line DOHH2 were seeded in 96-well plates in standard growth media (RPMI+10% fetal calf serum). Compounds were added in an 8-point dilution series ranging from 10 to 0.004 μM with DMSO at 0.1% final concentration in all wells. Cells were then stimulated with a F(ab′)2 fragment of anti-human IgG at 10 μg/mL for 14 to 20 hours before staining for FACS analysis. Cells were incubated with fluorescent-labeled anti-CD69 antibody for 30 minutes on ice in FACS buffer and analyzed on the FACSCanto flowcytometry. The IC50, the concentration that results in a 50% decrease in intensity of fluorescence detected on the cell surface, was calculated using the Prizm software to fit the dose-response curve.

Btk [1] = target: T1, Btk (Homo sapiens, UniProt Q06187); experiment: Inhibition of a panel of kinases: Btk; format: biochemical; settings: kinase panel, Table 2
Description: as §1

Btk [2] = target: T1, Btk; experiment: Btk in vitro inhibitory activity (Method A, B or C); format: biochemical; design: purified from insect cells as a full-length construct containing a N-terminal 6×-His tag; His6 (N); made in house; host or cells: insect cells (baculovirus, Sf21); settings: one of the methods of Example 53a, 53b, 53c
Description: Btk kinase activity is determined using a time-resolved fluorescence resonance energy transfer (TR-FRET) methodology. Measurements are performed in a reaction volume of 50 μL using 96-well assay plates. Kinase enzyme, inhibitor, ATP (at the Km for the kinase), and 1 μM peptide substrate (Biotin-AVLESEEELYSSARQ-NH2 (SEQ ID NO: 1)) are incubated in a reaction buffer composed of 20 mM Tris, 50 mM NaCl, MgCl2 (5-25 mM depending on the kinase), MnCl2 (0-10 mM), 1 mM DTT, 0.1 mM EDTA, 0.01% bovine serum albumin, 0.005% Tween-20, and 10% DMSO at pH 7.4 for one hour. The reaction is quenched by the addition of 1.2 equivalents of EDTA (relative to divalent cation) in 25 μL of 1× Lance buffer (Perkin-Elmer). Streptavidin-APC (Perkin-Elmer) and Eu-labeled p-Tyr100 antibody (Perkin-Elmer) in 1× Lance buffer are added in a 25 μL volume to give final concentrations of 100 nM and 2.5 nM, respectively, and the mixture is allowed to incubate for one hour. The TR-FRET signal is measured on a multimode plate reader with an excitation wavelength (λEx) of 330 nm and detection wavelengths (λEm) of 615 and 665 nm. Activity is determined by the ratio of the fluorescence at 665 nm to that at 615 nm. For each compound, enzyme activity is measured at various concentrations of compound. Negative control reactions are performed in the absence of inhibitor in replicates of six, and two no-enzyme controls are used to determine baseline fluorescence levels. Inhibition constants, Ki(app), ware obtained using the program BatchKi (Kuzmic et al. (2000), Anal. Biochem. 286:45-50). IC50s are obtained according to the equation: IC50={Ki(app)/1+[ATP]/Km^ATP)}+[E]total/2;
For all kinases, [ATP]=Km^ATP, [Btk]total=0.5 nM and [Lck]total=6 nM.
Kinase activity is measured in vitro using electrophoretic mobility shift assay. The kinase reactions are assembled in a total volume of 25 μL in 384 well plates. The reactions comprise: BTK enzyme (1 nM, N-terminal His6-tagged, recombinant, full-length, human BTK purified from baculovirus Sf21 insect cell system), inhibitor, ATP (16 μM, the apparent Km for the kinase), fluorescently labeled peptide substrate (1 μM, FAM-GEEPLYWSFPAKKK-NH2 (SEQ ID NO: 2)) in a reaction buffer composed of 100 mM HEPES, pH7.5, 5 mM MgCl2 1 mM DTT, 0.1% bovine serum albumin, 0.01% Triton X-100, and 1% DMSO. The reaction is incubated for one hour and is quenched by the addition of 45 μL of termination buffer (100 mM HEPES, pH7.5, 0.01% Triton X-100, 30 mM EDTA). The terminated reactions are analyzed using 12 channel LabChip® 3000 microfluidic detection instrument (Caliper Life Sciences). The enzymatic phosphorylation of the peptide results in a change in net charge, enabling electrophoretic separation of product from substrate peptide. As substrate and product peptides are separated, two peaks of fluorescence are observed. Change in the relative fluorescence intensity of the substrate and product peaks is the parameter measured, reflecting enzyme activity. In the presence of an inhibitor, the ratio between product and substrate is altered: the signal of the product decreases, while the signal of the substrate increases.
Activity in each sample is determined as the product to sum ratio (PSR):P/(S+P), where P is the peak height of the product peptide and S is the peak height of the substrate peptide. For each compound, enzyme activity is measured at various concentrations (12 concentrations of compound spaced by 3× dilution intervals). Negative control samples (0%−inhibition in the absence of inhibitor) and positive control samples (100%−inhibition, in the presence of 20 mM EDTA) are assembled in replicates of four and are used to calculate %−inhibition values for each inhibitor at each concentration. Percent inhibition (Pinh) is determined using following equation: […]

EGFR = EGFR (Homo sapiens, UniProt P00533); experiment: Inhibition of a panel of kinases: EGFR; format: biochemical; settings: kinase panel, Table 2
Description: as §1

T1 sequence (Q06187 whole entry): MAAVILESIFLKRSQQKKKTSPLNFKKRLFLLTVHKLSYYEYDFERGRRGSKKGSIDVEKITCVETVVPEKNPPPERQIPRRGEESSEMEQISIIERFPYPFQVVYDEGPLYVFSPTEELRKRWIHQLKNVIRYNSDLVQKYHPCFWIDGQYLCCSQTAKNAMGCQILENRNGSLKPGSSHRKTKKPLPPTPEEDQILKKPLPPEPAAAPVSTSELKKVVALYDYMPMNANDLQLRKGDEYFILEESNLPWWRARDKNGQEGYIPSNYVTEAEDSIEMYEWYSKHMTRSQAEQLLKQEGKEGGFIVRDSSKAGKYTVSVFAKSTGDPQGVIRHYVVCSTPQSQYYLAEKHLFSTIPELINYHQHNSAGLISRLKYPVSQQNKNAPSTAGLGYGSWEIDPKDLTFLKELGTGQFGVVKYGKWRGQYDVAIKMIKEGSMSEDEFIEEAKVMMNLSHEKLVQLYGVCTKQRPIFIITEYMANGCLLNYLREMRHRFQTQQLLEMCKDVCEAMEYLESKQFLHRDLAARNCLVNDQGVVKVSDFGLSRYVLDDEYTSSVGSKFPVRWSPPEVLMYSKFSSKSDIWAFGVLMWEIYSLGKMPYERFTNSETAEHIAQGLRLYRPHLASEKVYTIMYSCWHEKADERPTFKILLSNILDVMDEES
Chain of LCK (P06239 whole entry, species assumed): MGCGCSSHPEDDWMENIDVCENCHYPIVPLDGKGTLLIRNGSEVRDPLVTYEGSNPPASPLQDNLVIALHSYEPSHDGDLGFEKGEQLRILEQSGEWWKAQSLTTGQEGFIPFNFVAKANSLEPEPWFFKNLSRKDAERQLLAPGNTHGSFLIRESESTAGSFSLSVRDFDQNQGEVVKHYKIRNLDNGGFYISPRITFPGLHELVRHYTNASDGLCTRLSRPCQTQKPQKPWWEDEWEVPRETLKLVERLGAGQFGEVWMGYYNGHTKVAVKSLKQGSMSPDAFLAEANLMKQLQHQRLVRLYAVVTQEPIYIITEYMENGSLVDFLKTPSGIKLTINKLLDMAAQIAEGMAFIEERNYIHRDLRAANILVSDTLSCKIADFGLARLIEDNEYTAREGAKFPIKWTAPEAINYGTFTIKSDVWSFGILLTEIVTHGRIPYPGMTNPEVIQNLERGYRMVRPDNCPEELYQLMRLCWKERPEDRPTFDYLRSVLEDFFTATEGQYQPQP
Chain of EGFR (P00533 25-1210, species assumed): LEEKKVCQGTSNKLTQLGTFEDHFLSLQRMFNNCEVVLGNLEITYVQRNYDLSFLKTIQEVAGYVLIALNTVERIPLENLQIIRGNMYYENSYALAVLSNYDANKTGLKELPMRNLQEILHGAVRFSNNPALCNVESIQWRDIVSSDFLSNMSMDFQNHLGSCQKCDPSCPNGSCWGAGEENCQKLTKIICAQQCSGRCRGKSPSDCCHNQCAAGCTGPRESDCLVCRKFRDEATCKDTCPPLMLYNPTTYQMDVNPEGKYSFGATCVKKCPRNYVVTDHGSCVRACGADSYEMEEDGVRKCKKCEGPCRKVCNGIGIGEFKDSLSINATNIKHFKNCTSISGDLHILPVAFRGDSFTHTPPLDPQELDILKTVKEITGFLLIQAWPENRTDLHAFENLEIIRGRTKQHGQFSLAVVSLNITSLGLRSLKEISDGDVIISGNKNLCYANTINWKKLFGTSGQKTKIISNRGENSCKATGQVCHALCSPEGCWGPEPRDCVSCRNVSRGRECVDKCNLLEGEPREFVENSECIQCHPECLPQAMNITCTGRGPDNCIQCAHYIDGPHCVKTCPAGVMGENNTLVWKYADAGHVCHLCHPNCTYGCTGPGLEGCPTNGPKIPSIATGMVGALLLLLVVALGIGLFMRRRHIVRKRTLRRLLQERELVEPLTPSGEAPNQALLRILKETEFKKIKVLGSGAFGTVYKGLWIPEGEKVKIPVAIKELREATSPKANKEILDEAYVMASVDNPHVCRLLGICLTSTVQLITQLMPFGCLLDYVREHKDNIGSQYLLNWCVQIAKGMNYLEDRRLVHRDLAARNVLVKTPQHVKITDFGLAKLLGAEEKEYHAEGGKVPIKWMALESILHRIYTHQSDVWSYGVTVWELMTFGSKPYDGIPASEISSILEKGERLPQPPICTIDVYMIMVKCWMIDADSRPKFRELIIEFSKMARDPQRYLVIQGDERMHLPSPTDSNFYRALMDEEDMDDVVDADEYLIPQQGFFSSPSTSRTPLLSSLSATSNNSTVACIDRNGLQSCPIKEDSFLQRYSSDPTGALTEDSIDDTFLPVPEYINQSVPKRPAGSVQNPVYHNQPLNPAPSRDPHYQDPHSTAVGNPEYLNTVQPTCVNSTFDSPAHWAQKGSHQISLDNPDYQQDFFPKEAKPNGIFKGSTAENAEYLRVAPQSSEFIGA

Row | Compound | IC50 (LCK) [nM] | IC50 (lymphoma cell line DOHH2) [nM] | IC50 (Btk [1]) [nM] | IC50 (Btk [2]) [nM] | IC50 (EGFR) [nM]
1 | C=CC(=O)N1CC[C@@H](n2nc(-c3ccc(C(=O)Nc4cc(C)ccn4)cc3)c3c(N)ncnc32)C1 [Compound ID 20, (R)-4-(1-(1-acryloylpyrrolidin-3-yl)-4-amino-1H-pyrazolo[3,4-d]pyrimidin-3-yl)-N-(4-methylpyridin-2-yl)benzamide] | 10 to 100 | < 5 | ≤ 10 | ≤ 10 | ≤ 10
2 | C=CC(=O)N1CC[C@@H](n2nc(-c3ccc(C(=O)Nc4cc(C(F)(F)F)ccn4)cc3)c3c(N)ncnc32)C1 [Compound ID 21, (R)-4-(1-(1-acryloylpyrrolidin-3-yl)-4-amino-1H-pyrazolo[3,4-d]pyrimidin-3-yl)-N-(4-(trifluoromethyl)pyridin-2-yl)benzamide] | 10 to 100 | < 5 | ≤ 10 | ≤ 10 | ≤ 10
3 | C=CC(=O)N1CC[C@@H](n2nc(-c3ccc(C(=O)Nc4cc(C(C)C)ccn4)cc3)c3c(N)ncnc32)C1 [Compound ID 23, (R)-4-(1-(1-acryloylpyrrolidin-3-yl)-4-amino-1H-pyrazolo[3,4-d]pyrimidin-3-yl)-N-(4-isopropylpyridin-2-yl)benzamide] |  | < 5 |  | ≤ 10 | 
4 | C=CC(=O)N1CCC[C@@H](n2nc(-c3ccc(C(=O)Nc4cc(C)ccn4)cc3)c3c(N)ncnc32)C1 [Compound ID 26, (R)-4-(1-(1-acryloylpiperidin-3-yl)-4-amino-1H-pyrazolo[3,4-d]pyrimidin-3-yl)-N-(4-methylpyridin-2-yl)benzamide] |  | < 5 |  | ≤ 10 | 
5 | C=CC(=O)N1CCC[C@@H](n2nc(-c3ccc(C(=O)Nc4cc(C(F)(F)F)ccn4)cc3)c3c(N)ncnc32)C1 [Compound ID 27, (R)-4-(1-(1-acryloylpiperidin-3-yl)-4-amino-1H-pyrazolo[3,4-d]pyrimidin-3-yl)-N-(4-(trifluoromethyl)pyridin-2-yl)benzamide] |  | < 5 |  | ≤ 10 | 
6 | C=CC(=O)N1CC[C@@H](n2nc(-c3ccc(C(=O)Nc4cc(CCC)ccn4)cc3)c3c(N)ncnc32)C1 [Compound ID 30, (R)-4-(1-(1-acryloylpyrrolidin-3-yl)-4-amino-1H-pyrazolo[3,4-d]pyrimidin-3-yl)-N-(4-propylpyridin-2-yl)benzamide] |  | < 5 |  | ≤ 10 | 
7 | C=CC(=O)N1CCC[C@@H](n2nc(-c3ccc(C(=O)Nc4cc(CCC)ccn4)cc3)c3c(N)ncnc32)C1 [Compound ID 31, (R)-4-(1-(1-acryloylpiperidin-3-yl)-4-amino-1H-pyrazolo[3,4-d]pyrimidin-3-yl)-N-(4-propylpyridin-2-yl)benzamide] |  | < 5 |  | ≤ 10 | 
